Test results from US20250145633A1, “SUBSTITUTED FURANOPYRIMIDINE COMPOUNDS AS PDE1 INHIBITORS” (Dart NeuroScience, LLC, priority 2017, published 2025).

Molecular target: human PDE1B enzyme (Homo sapiens (Human), UniProt Q01064)
Assay: IMAP TR-FRET PDE1B enzymatic assay
Type: biochemical
Conditions: negative log of half-maximal molar inhibitory concentration, 200 nM FAM-cAMP, values given as bins; for IC50: read-out: PDE1b (pIC50) (converted)
Method in brief: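 Full-length GST-tagged human PDE1B (250 pg/well) in IMAP BSA buffer with 10 U/ml calmodulin and 2.5 mM CaCl2; compound pre-incubated 5 min at room temperature, then 200 nM (final) FAM-cAMP for 30 min. IMAP binding reagent/Tb added, 1 h; TR-FRET 520/490 ratio read. IC50 from sigmoidal dose-response fit.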

## Cc1oc2ncnc(NC3(C)CC3)c2c1C(=O)N1CCOC(c2ccncc2)C1 (stereo not drawn) [Example 119, 6-Methyl-N-(1-methylcyclopropyl)-5-[2-(pyridin-4-yl)morpholine-4-carbonyl]furo[2,3-d]pyrimidin-4-amine]
  IC50: 100 to 1000 nM

## Cc1oc2ncnc(NC3(C)CC3)c2c1C(=O)N1CCOC(c2cccnc2)C1 (stereo not drawn) [Example 120, 6-Methyl-N-(1-methylcyclopropyl)-5-[2-(pyridin-3-yl)morpholine-4-carbonyl]furo[2,3-d]pyrimidin-4-amine]
  IC50: 100 to 1000 nM

## Cc1oc2ncnc(NC3(C)CC3)c2c1C(=O)N1CCOC(c2cnn(C)c2)C1 (stereo not drawn) [Example 121, 6-Methyl-5-[2-(1-methyl-1H-pyrazol-4-yl)morpholine-4-carbonyl]-N-(1-methylcyclopropyl)furo[2,3-d]pyrimidin-4-amine]
  IC50: 100 to 1000 nM

## Cc1oc2ncnc(NC3(C)CC3)c2c1C(=O)N1CCOC(c2ccc(F)cc2)C1 (stereo not drawn) [Example 122, 5-[2-(4-Fluorophenyl)morpholine-4-carbonyl]-6-methyl-N-(1-methylcyclopropyl)furo[2,3-d]pyrimidin-4-amine]
  PDE1b (pIC50): >8

## COc1ccc(C2CN(C(=O)c3c(C)oc4ncnc(NC5(C)CC5)c34)CCO2)cc1 (stereo not drawn) [Example 123, 5-[2-(4-Methoxyphenyl)morpholine-4-carbonyl]-6-methyl-N-(1-methylcyclopropyl)furo[2,3-d]pyrimidin-4-amine]
  IC50: 100 to 1000 nM

## Cc1oc2ncnc(NC3(C)CC3)c2c1C(=O)NC1CC1 [Example 124, N-Cyclopropyl-6-methyl-4-[(1-methylcyclopropyl)amino]furo[2,3-d]pyrimidine-5-carboxamide]
  IC50: 10 to 100 nM

## Cc1oc2ncnc(NC3(C)CC3)c2c1C(=O)NCCF [Example 125, N-(2-Fluoroethyl)-6-methyl-4-[(1-methylcyclopropyl)amino]furo[2,3-d]pyrimidine-5-carboxamide]
  IC50: 10 to 100 nM

## Cc1oc2ncnc(NC3(C)CC3)c2c1C(=O)N[C@H]1C[C@H](F)C1 [Example 126, 6-Methyl-4-[(1-methylcyclopropyl)amino]-N-[(1R,3R)-3-fluorocyclobutyl]furo[2,3-d]pyrimidine-5-carboxamide]
  IC50: 10 to 100 nM

## Cc1oc2ncnc(NC3(C)CC3)c2c1C(=O)N[C@H]1C[C@@H](F)C1 [Example 127, 6-Methyl-4-[(1-methylcyclopropyl)amino]-N-[(1S,3S)-3-fluorocyclobutyl]furo[2,3-d]pyrimidine-5-carboxamide]
  IC50: 100 to 1000 nM

## Cc1oc2ncnc(NC3(C)CC3)c2c1C(=O)NC1CC(F)(F)C1 [Example 128, N-(3,3-Difluorocyclobutyl)-6-methyl-4-[(1-methylcyclopropyl)amino]furo[2,3-d]pyrimidine-5-carboxamide]
  IC50: 100 to 1000 nM

## Cc1oc2ncnc(NC3(C)CC3)c2c1C(=O)NC1(C2CC2)CCOCC1 [Example 129, N-(4-Cyclopropyloxan-4-yl)-6-methyl-4-[(1-methylcyclopropyl)amino]furo[2,3-d]pyrimidine-5-carboxamide]
  IC50: 10 to 100 nM

## Cc1oc2ncnc(NC3(C)CC3)c2c1C(=O)NC1(c2ccccc2)COC1 [Example 130, 6-Methyl-4-[(1-methylcyclopropyl)amino]-N-(3-phenyloxetan-3-yl)furo[2,3-d]pyrimidine-5-carboxamide]
  IC50: 10 to 100 nM

## Cc1oc2ncnc(NC3(C)CC3)c2c1C(=O)N1CCC(c2ccc(C(F)F)cc2)C1 (stereo not drawn) [Example 131, 5-{3-[4-(Difluoromethyl)phenyl]pyrrolidine-1-carbonyl}-6-methyl-N-(1-methylcyclopropyl)furo[2,3-d]pyrimidin-4-amine]
  PDE1b (pIC50): >8

## Cc1oc2ncnc(NC3(C)CC3)c2c1C(=O)N1CCC(F)(c2ccccc2)C1 (stereo not drawn) [Example 132, 5-(3-Fluoro-3-phenylpyrrolidine-1-carbonyl)-6-methyl-N-(1-methylcyclopropyl)furo[2,3-d]pyrimidin-4-amine]
  PDE1b (pIC50): >8

## Cc1oc2ncnc(NC3(C)CC3)c2c1C(=O)N1CCC(F)(c2ccc(F)cc2)C1 (stereo not drawn) [Example 133, 5-[3-Fluoro-3-(4-fluorophenyl)pyrrolidine-1-carbonyl]-6-methyl-N-(1-methylcyclopropyl)furo[2,3-d]pyrimidin-4-amine]
  PDE1b (pIC50): >8

## Cc1oc2ncnc(NC3(C)CC3)c2c1C(=O)NCCO [Example 134, N-(2-Hydroxyethyl)-6-methyl-4-[(1-methylcyclopropyl)amino]furo[2,3-d]pyrimidine-5-carboxamide]
  IC50: 100 to 1000 nM

## Cc1oc2ncnc(NC3(C)CC3)c2c1C(=O)NC(C)(C)CCO [Example 135, N-(4-Hydroxy-2-methylbutan-2-yl)-6-methyl-4-[(1-methylcyclopropyl)amino]furo[2,3-d]pyrimidine-5-carboxamide]
  PDE1b (pIC50): >8

## Cc1oc2ncnc(NC3(C)CC3)c2c1C(=O)NC(C)C [Example 136, 6-Methyl-4-[(1-methylcyclopropyl)amino]-N-(propan-2-yl)furo[2,3-d]pyrimidine-5-carboxamide]
  IC50: 10 to 100 nM

## Cc1oc2ncnc(NC3(C)CC3)c2c1C(=O)NCC(C)C [Example 137, 6-Methyl-4-[(1-methylcyclopropyl)amino]-N-(2-methylpropyl)furo[2,3-d]pyrimidine-5-carboxamide]
  IC50: 10 to 100 nM

## Cc1oc2ncnc(NC3(C)CC3)c2c1C(=O)NC(C)(C)C [Example 138, N-tert-Butyl-6-methyl-4-[(1-methylcyclopropyl)amino]furo[2,3-d]pyrimidine-5-carboxamide]
  IC50: 10 to 100 nM

## Cc1oc2ncnc(NC3(C)CC3)c2c1C(=O)NCC1CCOCC1 [Example 139, 6-Methyl-4-[(1-methylcyclopropyl)amino]-N-(oxan-4-ylmethyl)furo[2,3-d]pyrimidine-5-carboxamide]
  IC50: 10 to 100 nM

## CCC1(NC(=O)c2c(C)oc3ncnc(NC4(C)CC4)c23)CCOCC1 [Example 140, N-(4-Ethyloxan-4-yl)-6-methyl-4-[(1-methylcyclopropyl)amino]furo[2,3-d]pyrimidine-5-carboxamide]
  IC50: 10 to 100 nM

## Cc1oc2ncnc(NC3(C)CC3)c2c1C(=O)Nc1cnn(C)c1 [Example 141, 6-Methyl-N-(1-methyl-1H-pyrazol-4-yl)-4-[(1-methylcyclopropyl)amino]furo[2,3-d]pyrimidine-5-carboxamide]
  IC50: 10 to 100 nM

## Cc1cc(NC(=O)c2c(C)oc3ncnc(NC4(C)CC4)c23)no1 [Example 142, 6-Methyl-N-(5-methyl-1,2-oxazol-3-yl)-4-[(1-methylcyclopropyl)amino]furo[2,3-d]pyrimidine-5-carboxamide]
  IC50: 10 to 100 nM

## Cc1oc2ncnc(NC3(C)CC3)c2c1C(=O)Nc1nccs1 [Example 143, 6-Methyl-4-[(1-methylcyclopropyl)amino]-N-(1,3-thiazol-2-yl)furo[2,3-d]pyrimidine-5-carboxamide]
  IC50: 10 to 100 nM

## COc1ccc(NC(=O)c2c(C)oc3ncnc(NC4(C)CC4)c23)nc1 [Example 144, N-(5-Methoxypyridin-2-yl)-6-methyl-4-[(1-methylcyclopropyl)amino]furo[2,3-d]pyrimidine-5-carboxamide]
  IC50: 10 to 100 nM

## CCC1(NC(=O)c2c(C)oc3ncnc(NC4(C)CC4)c23)CC1 [Example 145, N-(1-Ethylcyclopropyl)-6-methyl-4-[(1-methylcyclopropyl)amino]furo[2,3-d]pyrimidine-5-carboxamide]
  PDE1b (pIC50): >8

## Cc1oc2ncnc(NC3(C)CC3)c2c1C(=O)NC1(CO)CC1 [Example 146, N-[1-(Hydroxymethyl)cyclopropyl]-6-methyl-4-[(1-methylcyclopropyl)amino]furo[2,3-d]pyrimidine-5-carboxamide]
  IC50: 10 to 100 nM

## Cc1oc2ncnc(NC3(C)CC3)c2c1C(=O)NC1(C(C)C)CC1 [Example 147, 6-Methyl-4-[(1-methylcyclopropyl)amino]-N-[1-(propan-2-yl)cyclopropyl]furo[2,3-d]pyrimidine-5-carboxamide]
  PDE1b (pIC50): >8

## COCC1(NC(=O)c2c(C)oc3ncnc(NC4(C)CC4)c23)CC1 [Example 148, N-[1-(Methoxymethyl)cyclopropyl]-6-methyl-4-[(1-methylcyclopropyl)amino]furo[2,3-d]pyrimidine-5-carboxamide]
  IC50: 10 to 100 nM

## Cc1oc2ncnc(NC3(C)CC3)c2c1C(=O)NC1(C2CC2)CC1 [Example 149, N-(1-Cyclopropylcyclopropyl)-6-methyl-4-[(1-methylcyclopropyl)amino]furo[2,3-d]pyrimidine-5-carboxamide]
  IC50: 10 to 100 nM

## Cc1oc2ncnc(NC3(C)CC3)c2c1C(=O)NC1(C2CCC2)CC1 [Example 150, N-(1-Cyclobutylcyclopropyl)-6-methyl-4-[(1-methylcyclopropyl)amino]furo[2,3-d]pyrimidine-5-carboxamide]
  PDE1b (pIC50): >8

## Cc1oc2ncnc(NC3(C)CC3)c2c1C(=O)NC1CC(c2ccc(F)cc2)C1 (stereo not drawn) [Example 151, N-[3-(4-Fluorophenyl)cyclobutyl]-6-methyl-4-[(1-methylcyclopropyl)amino]furo[2,3-d]pyrimidine-5-carboxamide]
  IC50: 10 to 100 nM

## Cc1oc2ncnc(NC3(C)CC3)c2c1C(=O)N1CCN(c2ncccc2F)CC1 [Example 152, 5-[4-(3-Fluoropyridin-2-yl)piperazine-1-carbonyl]-6-methyl-N-(1-methylcyclopropyl)furo[2,3-d]pyrimidin-4-amine]
  PDE1b (pIC50): >8

## Cc1oc2ncnc(NC3(C)CC3)c2c1C(=O)N1CCN(c2ncc(F)cn2)CC1 [Example 153, 5-[4-(5-Fluoropyrimidin-2-yl)piperazine-1-carbonyl]-6-methyl-N-(1-methylcyclopropyl)furo[2,3-d]pyrimidin-4-amine]
  IC50: 10 to 100 nM

## Cc1oc2ncnc(NC3(C)CC3)c2c1C(=O)N1CCN(c2cccc(F)n2)CC1 [Example 154, 5-[4-(6-Fluoropyridin-2-yl)piperazine-1-carbonyl]-6-methyl-N-(1-methylcyclopropyl)furo[2,3-d]pyrimidin-4-amine]
  PDE1b (pIC50): >8
